Consider 32 compounds from patent USRE45173E1, “Inhibitors of CYP 17” (Novartis AG, priority 2009, dated 2014).

Structures can show the parent of a compound that is named as a salt. Where two headings read alike, the source gives them in different places.

This experiment deals with recombinant human CYP17 enzyme (Homo sapiens (Human), UniProt P05093). The experiment is described as follows: Cytochrome P450, 17-20 lyase (CYP17-lyase) assay, tritiated acetic acid release from 17-α-hydroxy pregnenolone [21-3H]. It counts as biochemical. Particulars: human CYP17, substrate 0.25 μM. An excerpt: Assay method was adopted from a published protocol with some modifications to suit our requirements (Dmitry N Grigoryev et al, Analytical Biochemistry, (1999) 267, 319-330). […] Chloroform extraction removes the radioactive steroids and acetic acid is taken into aqueous layer. The tritiated acetic acid released in the assay thus extracted is quantified to determine the enzyme activity. […] The purified cell membrane preparations were used as the source for Human CYP17 enzyme. […] O, Nijar, et al., J Med Chem, (1998) 41, 902-912). […] Km for this substrate was determined by monitoring the tritiated acetic acid release as a function of substrate concentration. […] For the Km determination, the data was fit to a hyperbolic equation (Graphpad Prism® software IV). […] (Dmitry N. Grigoryev et al, Analytical Biochemistry (1999) 267, 319-330) […] NADPH is used at a final concentration of 4.2 mM. Total reaction volume was made up to 50 μL with 50 mM Phosphate buffer pH 7.5. The reaction mixture was incubated at room temperature for 90 minutes with gentle shaking. The reaction was stopped by the addition of 100 μL of buffer. 500 μL of 5% freshly prepared activated charcoal was added to the solution and mixed well by vortexing. The samples were centrifuged at 17568×g for 5 minutes. (14000 rpm). The supernatant was carefully transferred to fresh tube and 1.3 mL of scintillation fluid was added, mixed by vortexing. The radioactivity was measured in a 1450 MicroBeta TriLux™ scintillation counter from Wallac-Perkin Elmer®, USA. The measurements were carried out in 2.0 mL Eppendorforf™ tubes. […] The amount of tritiated acetic acid released is proportional to the lyase activity. Percent lyase activity in presence of inhibitor was calculated using the formula given below. […] Enzyme reaction in presence of inhibitor. • Positive control: […] For IC50 determination, the % inhibition was plotted as a function of inhibitor concentration. The data was fitted to sigmoidal equation using Graphpad Prism® software IV to generate IC50 values.

[1] abbreviates: read-out: Lyase IC 50 nM Human/Rat (Human).
The mark [2] stands for this setting: read-out: Lyase IC 50 Human/Rat (Human).

Chain of recombinant human CYP17 enzyme (P05093 whole entry): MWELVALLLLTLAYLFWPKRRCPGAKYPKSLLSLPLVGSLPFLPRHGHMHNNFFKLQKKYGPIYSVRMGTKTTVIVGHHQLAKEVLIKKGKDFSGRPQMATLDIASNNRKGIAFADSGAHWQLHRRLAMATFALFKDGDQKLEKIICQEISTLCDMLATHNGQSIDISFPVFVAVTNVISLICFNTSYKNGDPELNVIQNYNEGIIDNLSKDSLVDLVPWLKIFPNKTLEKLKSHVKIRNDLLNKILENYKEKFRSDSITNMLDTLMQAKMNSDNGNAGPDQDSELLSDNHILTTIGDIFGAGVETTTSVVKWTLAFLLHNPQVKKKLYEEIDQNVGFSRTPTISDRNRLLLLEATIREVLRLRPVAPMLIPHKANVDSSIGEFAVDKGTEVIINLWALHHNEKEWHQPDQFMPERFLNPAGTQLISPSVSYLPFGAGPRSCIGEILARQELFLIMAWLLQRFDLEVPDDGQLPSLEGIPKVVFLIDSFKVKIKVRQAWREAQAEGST

Turning to `Cc1ccncc1N1CCN(c2ccc(F)c(C(F)(F)F)c2)C1=O` [Example 90A, 1-(4-Fluoro-3-trifluoromethyl-phenyl)-3-(4-methyl-pyridin-3-yl)-imidazolidin-2-one], under setting [1], the IC50 amounted to 5 nM.
`O=C1N(c2cnc3[nH]cnc3c2)CCN1c1ccc2ncsc2c1` [Example 183A, 1-Benzothiazol-6-yl-3-(3H-imidazo[4,5-b]pyridin-6-yl)-imidazolidin-2-one]: the IC50 under setting [2] is more than 10000 nM.
With `Cc1c(Cl)cncc1N1CCN(c2ccc3ncsc3c2)C1=O` [Example 151A, 1-Benzothiazol-6-yl-3-(5-chloro-4-methyl-pyridin-3-yl)-imidazolidin-2-one], the IC50 under setting [1] was found to be 13.3 nM.
Consider `Cc1ccncc1N1CCN(c2ccc(Cl)cc2)C1=O` [Example 38A, 1-(4-Chloro-phenyl)-3-(4-methyl-pyridin-3-yl)-imidazolidin-2-one], for which, under setting [1], the IC50 was 70 nM.
Turning to `Cc1ccncc1N1CCN(c2ccc3c(C4CC4)n[nH]c3c2)C1=O` [Example 161A, 1-(3-Cyclopropyl-1H-indazol-6-yl)-3-(4-methylpyridin-3-yl)imidazolidin-2-one], the IC50 under setting [1] came to 82 nM.
Regarding `Cc1ccncc1N1C(=O)N(c2ccc3ncsc3c2)C(C)C1C` (centres unmarked) [Example 175A, 1-Benzothiazol-6-yl-4,5-dimethyl-3-(4-methyl-pyridin-3-yl)-imidazolidin-2-one], under setting [1], the IC50 came out at 85 nM.
As for `Cc1ccncc1N1CCN(c2ccc3nn(C)cc3c2)C1=O` [Example 132A, 1-(2-Methyl-2H-indazol-5-yl)-3-(4-methyl-pyridin-3-yl)-imidazolidin-2-one], under setting [2], the IC50 was more than 10000 nM.
In the case of `Cc1ccncc1N1CCN(c2ccc3[nH]nc(N)c3c2)C1=O` [Example 118A, 1-(3-Amino-1H-indazol-5-yl)-3-(4-methyl-pyridin-3-yl)-imidazolidin-2-one], the IC50 under setting [1] came to 17 nM.
Same read-out and setting: the figure for `Cc1ccncc1N1CCN(c2ccc3c(c2)CCC3)C1=O` [Example 138A, 1-Indan-5-yl-3-(4-methyl-pyridin-3-yl)-imidazolidin-2-one] is 13 nM; for `Cc1ccncc1N1CCN(c2ccc(-c3ccc(F)cc3)cc2)C1=O` [Example 87A, 1-(4′-Fluoro-biphenyl-4-yl)-3-(4-methyl-pyridin-3-yl)-imidazolidin-2-one] it is 255 nM.
The same measure, in the same setting: the figure for `Cc1ccncc1N1CCN(c2ccc3[nH]nnc3c2)C1=O` [Example 141A, 1-(1H-Benzotriazol-5-yl)-3-(4-methyl-pyridin-3-yl)-imidazolidin-2-one Hydrochloride] is 13 nM; for `Cc1nc2ccc(N3CCN(c4cnccc4C)C3=O)cc2s1` [Example 105A, 1-(2-Methyl-benzothiazol-6-yl)-3-(4-methyl-pyridin-3-yl)-imidazolidin-2-one] it is 1470 nM; for `Cc1ccncc1N1CCN(c2ccc(F)c(Cl)c2)C1=O` [Example 46A, 1-(3-Chloro-4-fluoro-phenyl)-3-(4-methyl-pyridin-3-yl)-imidazolidin-2-one] it is 10 nM.
With `Cc1ccncc1N1CCN(c2cccc(Cl)c2)C1=O` [Example 88A, 1-(3-Chloro-phenyl)-3-(4-methyl-pyridin-3-yl)-imidazolidin-2-one], the IC50 under setting [1] was 12 nM.
As for `CCc1cn(-c2ccc3ncsc3c2)c(=O)n1-c1cnccc1C` [Example 168A, 1-Benzothiazol-6-yl-4-ethyl-3-(4-methyl-pyridin-3-yl)-1,3-dihydro-imidazol-2-one], the IC50 under setting [1] came out at 384 nM.
For `Cc1ccncc1N1CCN(c2ccc(C#N)c(F)c2)C1=O` [Example 140A, 2-Fluoro-4-[3-(4-methyl-pyridin-3-yl)-2-oxo-imidazolidin-1-yl]-benzonitrile], the IC50 under setting [1] is 97 nM.
On the same count and under the same terms, under `Cc1cccc(N2CCN(c3cnccc3C(F)(F)F)C2=O)c1` [Example 131A, 1-m-Tolyl-3-(4-trifluoromethyl-pyridin-3-yl)-imidazolidin-2-one] stands 103 nM.
`CC(C)(O)c1ccncc1N1CCN(c2ccc3ncsc3c2)C1=O` [Example 156A, 1-(benzo[d]thiazol-6-yl)-3-(4-(2-hydroxypropan-2-yl)pyridin-3-yl)imidazolidin-2-one]: the IC50 under setting [2] was more than 10000 nM.
As to `Cc1ccncc1N1CCN(c2ccc3[nH][nH]c(=O)c3c2)C1=O` [Example 117A, 5-[3-(4-Methyl-pyridin-3-yl)-2-oxo-imidazolidin-1-yl]-1,2-dihydro-indazol-3-one], under setting [1], the IC50 stood at 94 nM.
On the same count and under the same terms, the figure for `Cc1ccncc1N1CCN(c2ccc(F)c(C(F)F)c2)C1=O` [Example 91A, 1-(3-Difluoromethyl-4-fluoro-phenyl)-3-(4-methyl-pyridin-3-yl)-imidazolidin-2-one] is 4.3 nM.
Take `CN1CCC(COc2ccncc2N2CCN(c3ccc4ncsc4c3)C2=O)CC1` [Example 184A, 1-Benzothiazol-6-yl-3-[4-(1-methyl-piperidin-4-ylmethoxy)-pyridin-3-yl]-imidazolidin-2-one]: the IC50 under setting [2] is more than 10000 nM.
As to `CN1CCC[C@H]1COc1ccncc1N1CCN(c2ccc3ncsc3c2)C1=O` (stereo in doubt) [Example 181A, 1-Benzothiazol-6-yl-3-[4-(1-methyl-pyrrolidin-2-ylmethoxy)-pyridin-3-yf]-imidazolidin-2-one], under setting [1], the IC50 was found to be 3060 nM.
As to `CC(=O)Nc1ccc(N2CCN(c3cnccc3C)C2=O)cn1` [Example 75A, N-{5-[3-(4-Methyl-pyridin-3-yl)-2-oxo-imidazolidin-1-yl]-pyridin-2-yl}-acetamide], the IC50 under setting [2] was more than 10000 nM.
As to `Cc1ccncc1N1C(=O)N(c2ccc3ncsc3c2)CC1(C)C` [Example 165A, 1-Benzothiazol-6-yl-4,4-dimethyl-3-(4-methyl-pyridin-3-yl)-imidazolidin-2-one], the IC50 under setting [1] was found to be 1150 nM.
With `Cc1ccncc1N1CCN(c2c[nH]c3ccccc23)C1=O` [Example 107A, 1-(1H-Indol-3-yl)-3-(4-methyl-pyridin-3-yl)-imidazolidin-2-one], the IC50 under setting [1] was found to be 334 nM.
Still for that read-out and setting: under `COc1cccc(N2CCN(c3cnccc3C)C2=O)c1` [Example 56A, 1-(3-Methoxy-phenyl)-3-(4-methyl-pyridin-3-yl)-imidazolidin-2-one] stands 25 nM; under `Cc1ccncc1N1CCN(c2ccc3nccnc3c2)C1=O` [Example 77A, 1-(4-Methyl-pyridin-3-yl)-3-quinoxalin-6-yl-imidazolidin-2-one], 195 nM; under `N#Cc1ccncc1N1CCN(c2ccc3ncsc3c2)C1=O` [Example 129A], 202 nM.
The same measure, in the same setting: under `O=C1N(c2ccc3ncsc3c2)CCN1c1cnccc1CNC1CC1` [Example 178A, 1-Benzothiazol-6-yl-3-(4-cyclopropylaminomethyl-pyridin-3-yl)-imidazolidin-2-one] stands 19 nM; under `Cc1ccncc1N1CC(C)N(c2ccc3ncsc3c2)C1=O` (centres unmarked) [Example 166A, 3-Benzothiazol-6-yl-4-methyl-1-(4-methyl-pyridin-3-yl)-imidazolidin-2-one], 32 nM.
Still for that read-out and setting: under `Cc1ccncc1N1C(=O)N(c2ccc3ncsc3c2)CC1C` (centres unmarked) [Example 167A, 1-Benzothiazol-6-yl-4-methyl-3-(4-methyl-pyridin-3-yl)-imidazolidin-2-one] stands 38 nM.
Regarding `CC1(C)CN(c2ccc3ncsc3c2)C(=O)N1c1cccnc1` [Example 164A, 1-Benzothiazol-6-yl-4,4-dimethyl-3-pyridin-3-yl-imidazolidin-2-one], under setting [1], the IC50 is 70 nM.
